A word on the IC50: it is the concentration that gives 50% inhibition. As a reminder, the EC50 is the concentration that produces a half-maximal response.

The values below come from article PMC8878317, “Chemogenomics identifies acetyl-coenzyme A synthetase as a target for malaria treatment and prevention” (Cell Chemical Biology, 2022).

For test [1], the target named is T1, PfAcAS A597V (Plasmodium falciparum, UniProt C6KTB4, A597V).
T1 sequence (C6KTB4 1-997 A597V): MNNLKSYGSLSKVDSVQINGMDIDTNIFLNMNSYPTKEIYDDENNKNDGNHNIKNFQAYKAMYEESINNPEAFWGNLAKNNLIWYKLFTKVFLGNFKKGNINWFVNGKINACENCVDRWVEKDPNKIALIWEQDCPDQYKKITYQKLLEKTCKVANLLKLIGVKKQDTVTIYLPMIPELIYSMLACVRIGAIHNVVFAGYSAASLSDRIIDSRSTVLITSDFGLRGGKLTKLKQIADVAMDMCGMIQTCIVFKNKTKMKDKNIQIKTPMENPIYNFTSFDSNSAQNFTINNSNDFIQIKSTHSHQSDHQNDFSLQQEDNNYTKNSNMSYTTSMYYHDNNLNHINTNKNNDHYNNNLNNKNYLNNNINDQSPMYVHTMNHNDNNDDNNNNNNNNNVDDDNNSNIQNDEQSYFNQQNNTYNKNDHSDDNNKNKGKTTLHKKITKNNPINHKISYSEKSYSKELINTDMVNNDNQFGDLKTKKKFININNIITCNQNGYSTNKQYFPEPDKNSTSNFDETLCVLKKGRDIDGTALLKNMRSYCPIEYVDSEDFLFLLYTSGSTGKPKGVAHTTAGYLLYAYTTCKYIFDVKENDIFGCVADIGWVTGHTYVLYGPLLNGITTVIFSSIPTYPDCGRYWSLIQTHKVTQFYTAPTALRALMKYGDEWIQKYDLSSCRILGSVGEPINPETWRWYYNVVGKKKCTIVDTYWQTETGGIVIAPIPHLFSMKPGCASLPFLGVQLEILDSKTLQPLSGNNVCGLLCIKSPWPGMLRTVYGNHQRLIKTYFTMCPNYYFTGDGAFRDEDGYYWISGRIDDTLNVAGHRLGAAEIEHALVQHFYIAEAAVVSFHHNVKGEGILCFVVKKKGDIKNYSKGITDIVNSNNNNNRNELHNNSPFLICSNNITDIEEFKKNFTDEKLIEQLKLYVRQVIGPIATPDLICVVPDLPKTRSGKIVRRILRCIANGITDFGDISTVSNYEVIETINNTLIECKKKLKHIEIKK
Nature of the test: EnzChek assay, recombinant PfAcAS A597V. Type of test: biochemical, P. falciparum. The procedure:
(§1) Steady-state kinetic measurements were conducted at room temperature using a PheraStar plate reader (BMG). The first step of the reaction of PfAcAS, which produces inorganic pyrophosphate (PPi) that is converted to two molecules of inorganic phosphate using a pyrophosphatase enzyme, was continuously monitored using the EnzChek Phosphate Assay Kit, which gives an absorbance readout at 360 nm (Figure 4A) ([Webb, 1992]). […] By adding CoA, the reaction rapidly proceeds to the second step resulting in further release of pyrophosphate, making the EnzChek assay a suitable option to continuously monitor the activity of PfAcAS. Typical kinetic assays were carried out in clear, flat-bottom, polystyrene, 384-well plates (Greiner) in an 80 μL reaction volume containing 100 mM HEPES (pH7.4), 100 mM NaCl, 250 mM KCl, 50 mM MgCl2, 1 mM DTT, 0.004% Tween 20, 0.5 U/mL pyrophosphatase, 0.1 mM MESG, 0.5 U/mL PNP, 2 mM ATP, 2 mM acetate, 0.5 mM CoA and 5 nM recombinant PfAcAS WT or 10 nM recombinant PfAcAS A597V or T648M. Assays were performed by adding 40 μL of a 2-times concentrated substrate mixture including MESG to all wells, and the reactions started by adding 40 μL of a 2-times concentrated reaction mixture containing all other components. The reactions were carried out for 2 to 4 hr with absorbance readings at 360 nm every two to four minutes. Reaction rates were extracted from the linear phase of activity, usually using 10 to 20 points between times of 30 and 100 min of the reactions. Using a phosphate standard curve obtained under the same buffer conditions used for the PfAcAS reactions (Figure S5A), the rates were then converted to velocity per second, conversion of one nanomolar of phosphate, per nanomolar of enzyme, per second. The substrates Km values were determined by varying the concentration of one of the substrates at saturating concentration of the other two substrates. Steady-state data were fitted using the nonlinear, least-squares, curve-fitting programs of Sigma-Plot for Windows, version 14.0. Individual saturation curves were fit to Equation 1(Equation 1) v=VS/K+S where V is the maximal velocity, S is the substrate concentration and K is the Michaelis constant for the substrate (Km). Individual saturation curves displaying substrate inhibition were fit to Equation 2(Equation 2) v=VS/K+S×(1+S/Ks) where Ks is the substrate inhibition constant.
(§2) To determine the steady-state inhibition parameters and patterns associated with both inhibitors, PfAcAS activity was studied in the presence of variable concentrations of one substrate, ATP, acetate or CoA, fixed saturating concentration of the other two substrates (acetate and CoA, ATP and CoA, or ATP and acetate) and several fixed concentrations of inhibitor. Assay ready plates containing different concentrations of inhibitor were prepared using an Echo 550 acoustic dispenser (Labcyte Inc.). The assays were carried out as described in the previous section. […] For better comparison between both inhibitors and proteins, the ymin was fixed to zero and the ymax to 100. Inhibition data showing linear, competitive patterns in double-reciprocal plots were fit to Equation 4(Equation 4) v=VS/K(1+I/Ki)+S where Ki is the dissociation constant for the enzyme-inhibitor complex. Inhibition data showing linear, mixed inhibition patterns in double-reciprocal plots were fit to Equation 5(Equation 5) v=VS/K(1+I/Kis)+S(1+I/Kii) where Kis is the dissociation constant for the free enzyme-inhibitor complex and Kii is the dissociation constant for the enzyme-substrate-inhibitor complex. Inhibition data showing linear, uncompetitive patterns in double-reciprocal plots were fit to Equation 6(Equation 6) v=VS/K+S(1+I/Ki)

In test [2] the test system is HepG2 cells. Nature of the test: HepG2 cytotoxicity. In kind it is cell-based. The settings on record: Homo sapiens, mammalian cell cytotoxicity.
In test [3] the test system is P. falciparum control YFP cKD line. Nature of the test: cKD compound susceptibility assay, control YFP cKD line. In kind it is cell-based. As to conditions: Plasmodium falciparum. The procedure:
Synchronous ring-stage, aptamer-regulated PfAcAS and control parasite lines were resuspended in varying aTc concentrations (high = 50 nM, low = 1 nM, and no aTc) and distributed into the drug plate. DMSO carrier and chloroquine (200 nM) wells served as positive and negative controls.

The target in test [4] is PfAcAS WT (Plasmodium falciparum, UniProt C6KTB4). Nature of the test: PfAcAS mode of inhibition studies (EnzChek). In kind it is biochemical, P. falciparum. Also noted: key to MoI (mode of inhibition), Kis/Kii,acetate / MoI (mode of inhibition), Ki,ATP / MoI (mode of inhibition), Kis,acetate / MoI (mode of inhibition), Ki,CoA: UC = uncompetitive; MI = mixed inhibition; C = competitive. The procedure: as §1, §2

In test [5] the test system is P. falciparum NF54-PfACS11-cKD. Nature of the test: cKD compound susceptibility assay, PfACS11 cKD line. In kind it is cell-based. The settings on record: 50 nM aTc vs no aTc.
[6] abbreviates: read-out: control cKD EC50 ± SD (nM) (0nM aTc).
The mark [7] stands for this setting: read-out: control cKD EC50 ± SD (nM) (50nM aTc).
[8] abbreviates: variable ATP, saturating acetate and CoA, linear uncompetitive, read-out: Ki versus ATP.
Where [9] appears, read: variable CoA, saturating ATP and acetate, read-out: Ki versus CoA.

Read-outs that look alike come from different tables or passages of the source. Some results are limits rather than exact numbers.

With `CCN(CC)S(=O)(=O)c1ccc(Cl)c(C(=O)Nc2ccc3nc(C)sc3c2)c1` [MMV019721], the “Hill, AcAS A597V” value in test [1] is given as 0.58 ± 0.05. The IC50 in test [1] turned out to be 6900 ± 1200 nM. The EC50 was more than 50000 nM in test [2], 200 ± 61 nM in test [3] (setting [6]) and 210 ± 80 nM in test [3] (setting [7]). For the same molecule, the “MoI (mode of inhibition), Ki,ATP” value in test [4] (Table S6 (MMV019721 MoI)) is “UC”. In test [4] (Table S6 (MMV019721 MoI)), the “MoI (mode of inhibition), Ki,CoA” value was “C”. For the same molecule, the “MoI (mode of inhibition), Kis,acetate” value in test [4] (Table S6 (MMV019721 MoI)) is reported as “UC”. The “MoI (mode of inhibition), Kis/Kii,acetate” value in test [4] (Table S6, fourth column (head printed MMV019721 MoI)) was “MI”. Also, the Ki came out at 200 ± 8 nM in test [4] (setting [8]); 22 ± 1 nM in test [4] (setting [9]); 150 ± 10 nM in test [4] (variable acetate, saturating ATP and CoA, linear uncompetitive, read-out: Ki versus acetate). In test [5], the “effect of conditional knockdown of PfACS11 on parasite sensitivity” value is on record as “did not increase parasite sensitivity”.

Consider `O=C(NNC(=O)c1csnn1)c1ccc(Cl)cc1` [MMV084978], for which, in test [1], the 50% inhibitory concentration (IC50) was more than 100000 nM. In addition, the EC50 was more than 50000 nM in test [2], 240 ± 29 nM in test [3] (setting [6]) and 230 ± 23 nM in test [3] (setting [7]). For the same molecule, the Kii against acetate in test [4] (linear mixed inhibition, enzyme-substrate-inhibitor complex) is on record as 390 ± 110 nM. In addition, the Ki in test [4] (linear mixed inhibition, free enzyme-inhibitor complex, read-out: Kis against acetate) was 30 ± 3 nM; in test [4] (setting [8]), 680 ± 26 nM; in test [4] (setting [9]), 690 ± 24 nM. In addition, in test [5], the “effect of conditional knockdown of PfACS11 on parasite sensitivity” value was “did not increase parasite sensitivity”.
